From patent US4927829A, “Heterocyclic compounds and antiulcer agents” (Shionogi & Co., Ltd., priority 1988, dated 1990)
Like-named read-outs stand apart in the source and are kept apart here.

Key:
stress ulcer = assay: Effect on stress ulcer (water-immersion restraint), oral; format: in vivo, SD rats; settings: Rattus norvegicus, read-out: Inhibition rate (stress ulcer)
Description: Male SD rats (body weight: 260-290 g) which had fasted for 24 hours were placed in a wire net-restraint cage and immersed up to the breast in water at 23° C. After 7 hours, the animals were sacrificed, and the stomach were excised. […] The test compound was suspended in 5% gum arabic solution and orally administered 30 minutes before the stress load.
Cimetidine was used as control drug.

mice = assay: Acute toxicity test, intraperitoneal, mice; format: in vivo; settings: n=5-6, up to 500 mg/kg
From the text: From the above-mentioned results it is evident that the antiulcer activity of the compounds (I) of this invention was about ten times as potent as that of control drug.

[1] = oral, 30 minutes before stress load, male SD rats, 23° C. water immersion, 7 hours
[2] = 30 mg/kg, oral, 30 minutes before stress load, male SD rats, 23° C. water immersion, 7 hours

| SMILES | inhibition in vivo at 30 mg/kg (stress ulcer; po, 7 h) | acute toxicity (dead cases) (mice) | inhibition in vivo at 3 mg/kg (stress ulcer; [1]) | inhibition in vivo at 10 mg/kg (stress ulcer; [1]) | inhibition in vivo at 30 mg/kg (stress ulcer; [2]) | inhibition in vivo at 1 mg/kg (stress ulcer; 1 mg/kg, oral, 30 minutes before stress load, male SD rats, 23° C. water immersion, 7 hours) |
| --- | --- | --- | --- | --- | --- | --- |
| CN/C(=N/CCSCc1nc[nH]c1C)NC#N [Cimetidine, reference compound] | 56% |  |  |  |  |  |
| O=C(Sc1cccn2c(=O)ccnc12)N1CCSCC1 [Example 7] |  | no dead case even at a dose of 500 mg/kg | 46% | 77% | 71% |  |
| O=C(Sc1cccn2c(=O)ccnc12)N1CCOCC1 [Example 9] |  |  | 33% | 66% | 80% |  |
| CCOC(=O)c1cnc2c(SC(=O)N3CCCCC3)cccn2c1=O [Example 13] |  |  | 34% | 70% | 81% |  |
| CCOC(=O)c1cnc2c(SC(=O)N3CCSC3)cccn2c1=O [Example 14] |  | no dead case even at a dose of 500 mg/kg | 50% | 68% | 89% | 45% |
| CCOC(=O)c1cnc2c(SC(=O)N3CCCC3)cccn2c1=O [Example 16] |  |  | 40% | 62% | 85% |  |
| O=C(Sc1cccn2c(=O)ccnc12)N1CCSC1 [Example 17] |  | no dead case even at a dose of 500 mg/kg | 74% | 72% | 70% |  |
| O=C(Sc1cccn2c(=O)ccnc12)N1CCCCC1 [Example 18] |  |  | 80% | 76% |  |  |
| O=C(Sc1cccn2c(=O)ccnc12)N1CCCC1 [Example 19] |  |  |  | 45% |  |  |
